The record followed here is ChEMBL document CHEMBL6087472, “Development and Discovery of a Selective Degrader of Casein Kinases 1 δ/ε” (J Med Chem, 2025).

Experiment [1] deals with T1, von Hippel-Lindau disease tumor suppressor/Casein kinase I isoform alpha (Homo sapiens) (UniProt P48729+P40337). The experiment in a line: PROTAC activity at VHL/CK1 alpha (unknown origin) endogenously expressed in HEK293 cells assessed as degradation of CK1-alpha at 10 to 30 uM incubated for 6 hrs by Western blot analysis. It is filed as cell-based. The note with it: dose 10-30 µM.

The next experiment concerns MV4-11. In words: Cytotoxicity in human MV4-11 cells at >10 uM measured after 72 hrs by alamar blue assay. Type of experiment: functional, cell-based. (In general: Resazurin is reduced to fluorescent resorufin, in cell work by metabolically active cells.)
The target of experiment [2] is T1, von Hippel-Lindau disease tumor suppressor/Casein kinase I isoform alpha (Homo sapiens). In words: PROTAC activity at VHL/CK1 alpha in human MV4-11 cells assessed as induction of degradation of CK1 alpha measured after 1 hrs by HiBit assay. Type of experiment: cell-based. The note with it: dose 0.625-10 µM. (In general: The HiBiT peptide binds its large partner to form an active luciferase.)

For experiment [3], the target named is T2, von Hippel-Lindau disease tumor suppressor/Casein kinase I isoform epsilon (Homo sapiens) (UniProt P49674+P40337). The experiment in a line: PROTAC activity at VHL/CK1 epsilon in human U87 cells assessed as induction of degradation of CK1 epsilon at 1 uM measured after 6 hrs. Type of experiment: cell-based.
For experiment [4], the target named is T1, von Hippel-Lindau disease tumor suppressor/Casein kinase I isoform alpha (Homo sapiens). The experiment in a line: PROTAC activity at VHL/CK1 alpha in human HEK293 cells at 0.625 to 10 uM in presence of MU1742 by Western blot analysis. Type of experiment: cell-based. As to conditions: dose 0.625-10 µM.
The target in experiment [5] is T2, von Hippel-Lindau disease tumor suppressor/Casein kinase I isoform epsilon (Homo sapiens). The experiment in a line: PROTAC activity at VHL/CK1 epsilon in HEK293 cells assessed as induction of degradation of CK1 epsilon at upto 20 uM pretreated with LGK974 followed by compound addition and measured after 6 hrs by Western blot analysis. Type of experiment: cell-based. In general terms: A western blot detects proteins with antibodies after separation by electrophoresis.

Molecules are shown by their SMILES. Active and inactive are the calls of the source. No cut-off for these calls is given here.

T1 sequence (P40337 whole entry, looked up, canonical isoform): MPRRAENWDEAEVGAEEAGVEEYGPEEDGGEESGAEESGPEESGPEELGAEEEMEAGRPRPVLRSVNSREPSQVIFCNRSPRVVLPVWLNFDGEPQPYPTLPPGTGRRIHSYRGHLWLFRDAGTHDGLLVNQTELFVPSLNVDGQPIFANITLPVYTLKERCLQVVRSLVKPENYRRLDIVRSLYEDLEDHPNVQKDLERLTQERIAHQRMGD
T1 sequence (P48729 whole entry, looked up, canonical isoform): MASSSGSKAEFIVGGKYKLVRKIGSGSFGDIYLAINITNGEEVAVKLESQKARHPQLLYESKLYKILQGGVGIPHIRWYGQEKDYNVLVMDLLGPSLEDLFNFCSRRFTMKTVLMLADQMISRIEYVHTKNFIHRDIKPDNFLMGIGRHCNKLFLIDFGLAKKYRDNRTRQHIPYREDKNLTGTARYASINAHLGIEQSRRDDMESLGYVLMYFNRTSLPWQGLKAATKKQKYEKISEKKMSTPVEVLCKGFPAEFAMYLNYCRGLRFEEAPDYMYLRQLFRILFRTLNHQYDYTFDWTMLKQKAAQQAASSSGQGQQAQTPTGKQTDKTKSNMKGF
T2 sequence (P40337 whole entry, looked up, canonical isoform): as the sequence (P40337 whole entry, looked up, canonical isoform) above
T2 sequence (P49674 whole entry, looked up, canonical isoform): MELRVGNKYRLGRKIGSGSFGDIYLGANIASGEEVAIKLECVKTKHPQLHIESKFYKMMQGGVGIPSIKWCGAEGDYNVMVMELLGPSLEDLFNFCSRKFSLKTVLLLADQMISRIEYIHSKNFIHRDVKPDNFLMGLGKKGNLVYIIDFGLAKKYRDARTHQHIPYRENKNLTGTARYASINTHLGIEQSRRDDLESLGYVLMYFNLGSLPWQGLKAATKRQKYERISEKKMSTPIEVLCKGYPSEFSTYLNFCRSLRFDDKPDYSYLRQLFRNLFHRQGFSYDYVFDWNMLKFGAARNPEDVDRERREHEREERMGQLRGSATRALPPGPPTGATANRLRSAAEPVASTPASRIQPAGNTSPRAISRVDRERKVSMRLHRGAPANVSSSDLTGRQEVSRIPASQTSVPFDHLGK

For `Cc1ncsc1-c1ccc(CNC(=O)[C@H]2C[C@H](O)CN2C(=O)[C@H](NC(=O)CCCCCCC(=O)N2CCC(F)(Cn3cnc(-c4ccc(F)cn4)c3-c3ccnc4[nH]ccc34)CC2)C(C)(C)C)cc1`, the outcome (in experiment [1]; in the experiment on MV4-11; in experiment [3]; in experiment [5]) was Active. The Activity result in experiment [2] is “Dose-dependent-effect”. In addition, the outcome in experiment [4] was inactive.
